According to ChEMBL document CHEMBL5357075, “Innovative Therapeutic Strategies in TYK2-Targeted Treatments: From Cancer to Autoimmune Disorders” (ACS Med Chem Lett, 2024):

How the values were obtained:
[1] = target: T1, Non-receptor tyrosine-protein kinase TYK2 (Homo sapiens, UniProt P29597); assay: Inhibition of TYK2 in HEK-Blue alpha/beta cells pretreated for 60 mins followed by IFN-alpha stimulation for 16 to 18 hrs by Quanti-Blue based SEAP assay; type: cell-based
[2] = target: T1, Non-receptor tyrosine-protein kinase TYK2; assay: Inhibition of TYK2 in HEK-Blue IL-23 cells pretreated for 60 mins followed by IL-23 stimulation for 22 to 24 hrs by Quanti-Blue based SEAP assay; type: cell-based

T1 sequence (P29597 whole entry): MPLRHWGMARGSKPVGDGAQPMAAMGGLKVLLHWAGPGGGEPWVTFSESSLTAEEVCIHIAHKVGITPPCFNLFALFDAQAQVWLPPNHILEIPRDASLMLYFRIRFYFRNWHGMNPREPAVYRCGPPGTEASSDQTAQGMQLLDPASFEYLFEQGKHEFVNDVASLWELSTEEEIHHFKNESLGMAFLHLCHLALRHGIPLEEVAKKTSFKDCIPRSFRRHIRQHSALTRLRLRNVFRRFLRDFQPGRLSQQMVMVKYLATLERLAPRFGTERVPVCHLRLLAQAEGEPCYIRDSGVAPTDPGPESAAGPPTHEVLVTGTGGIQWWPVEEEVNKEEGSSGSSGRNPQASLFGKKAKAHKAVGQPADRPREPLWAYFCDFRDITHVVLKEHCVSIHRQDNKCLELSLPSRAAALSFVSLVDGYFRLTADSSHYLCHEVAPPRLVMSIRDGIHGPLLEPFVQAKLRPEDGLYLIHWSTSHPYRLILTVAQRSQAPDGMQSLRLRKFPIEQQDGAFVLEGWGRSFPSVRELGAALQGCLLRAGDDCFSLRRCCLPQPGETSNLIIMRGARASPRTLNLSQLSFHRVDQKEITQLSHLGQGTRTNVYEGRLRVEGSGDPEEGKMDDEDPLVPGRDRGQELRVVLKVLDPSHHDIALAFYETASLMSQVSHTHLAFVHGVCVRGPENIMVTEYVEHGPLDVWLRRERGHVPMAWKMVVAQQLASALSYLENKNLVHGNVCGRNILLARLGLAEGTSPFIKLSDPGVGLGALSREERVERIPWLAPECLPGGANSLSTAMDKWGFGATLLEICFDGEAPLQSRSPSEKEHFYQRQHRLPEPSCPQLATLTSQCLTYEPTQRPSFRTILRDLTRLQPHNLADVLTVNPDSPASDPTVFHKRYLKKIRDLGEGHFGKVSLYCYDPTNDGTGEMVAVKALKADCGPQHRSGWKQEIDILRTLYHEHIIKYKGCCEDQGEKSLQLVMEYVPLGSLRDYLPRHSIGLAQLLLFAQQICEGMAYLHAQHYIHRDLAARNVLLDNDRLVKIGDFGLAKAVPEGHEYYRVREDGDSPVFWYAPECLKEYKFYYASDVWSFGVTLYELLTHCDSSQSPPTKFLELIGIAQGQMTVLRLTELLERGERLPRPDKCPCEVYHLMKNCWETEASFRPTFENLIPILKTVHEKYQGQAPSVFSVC

[2H]C([2H])([2H])CC(=O)c1cnc(NC(=O)C2CC2)cc1Nc1cccc2c1N(C)Cc1nc(C)nn1-2
IC50 [1]: 0.03 µM | IC50 [2]: < 0.03 µM

[2H]C([2H])([2H])CC(=O)c1cnc(NC(=O)C2CC2)cc1Nc1cccc2c1N(C)[C@@H](C)c1nn(C)nc1-2
IC50 [1]: < 0.03 µM | IC50 [2]: < 0.03 µM

[2H]C([2H])([2H])CC(=O)c1cnc(NC(=O)C2CC2)cc1Nc1nccc2c1N(C)Cc1nn(CC)nc1-2
IC50 [1]: 0.03 µM | IC50 [2]: < 0.03 µM
